Test results from patent publication US20240190875A1, “SPIROINDOLINE DERIVATIVE, AND PREPARATION METHOD AND MEDICAL USE THEREOF” (CHANGCHUN GENESCIENCE PHARMACEUTICAL CO., LTD., priority 2021, published 2024).
Like-named read-outs stand apart in the source and are kept apart here.

How the values were obtained:
[1] = tested on: Caco-2 cells; test: Caco-2 cell transport assay (bidirectional); details: Table 3-1, Caco-2, 2.00 μM
[2] = tested on: growth hormone (GH); test: In-vivo pharmacodynamic test in rats: plasma GH level by ELISA after oral administration; design: species or system Sprague-Dawley (SD) rats; details: for GH concentration in rats: male SD rats, oral, 4 mpk in 10% HS15
[3] = Metabolism (pharmacokinetic) test in rats, oral gavage
[4] = Subacute toxicity test in rats (14 days oral, 14 days recovery); type: in vivo, Sprague-Dawley (SD) rats
Procedure: Male Sprague-Dawley (SD) rats (180-220 g) were purchased from Liaoning Changsheng Biotechnology Co., Ltd. (Liaoning, China). All animals were kept in a temperature-controlled room (22±2° C.) with a relative humidity of 55±15% and a 12/12-h light/dark period (the light was turned off at 8:00 pm), with 3 animals in each cage. Animals were adapted to the environment for 1 week after arrival, and allowed to free access to indicated feed and sterilized water, and the padding in the animal cage was changed twice a week.
The compound of the present invention was prepared in 10% HS15.
Multiple doses (30 mpk, 100 mpk and 300 mpk) of the compound of the present invention were orally administered to rats. The compound was administered once a day for consecutive 14 days. The rats were weighed twice a week. […] Compound 5 was given by oral gavage for consecutive 14 days and then recovered for 2 weeks.

[5] = molecular target: human GHSR (Homo sapiens (Human), UniProt Q92847); test: Human GHSR agonist activity, FLIPR calcium fluorescence in human GHSR/CHO stable cell line; type: cell-based
Procedure: This method was used to determine the agonism effect of the compound of the invention on the activity of human GHSR protein expressed in human GHSR/CHO stable cell line.
Preparation of buffer: HBSS (1X):HEPES (1M)=49:1, containing 0.5% BSA.
Cells of human GHSR/CHO stable cell line were inoculated into a 384-well plate, and incubated overnight. Then, the cell plate was removed, and the medium was discarded. 20 uL buffer as slowly added to each well, and then 20 uL 2X Fluo-4 Direct™ No-wash Loading Buffer was added to each well. The cell plate was incubated in an incubator at 37° C. and 5% CO2 for 50 min, and then removed and allowed to stand at room temperature for 10 min. 30 uL buffer was added to each well in the compound plate; and a buffer plate was additionally prepared and 30 uL buffer was added to each well. Test for agonism of compound: An FLIPR instrument and running software were used. 10 uL buffer was transferred to the cell plate and the value of fluorescence signal was read. 10 uL compound was transferred to the cell plate and the value of fluorescence signal was read. An FLIPR program was used to calculate the difference between the maximum value and the minimum value from the 91st signal point to the 230th signal point. The EC50 value of the compound can be calculated by software from fluorescence values corresponding to various concentrations.

[6] = in vitro; details: human; for Papp B→A at 2 h, 2 μM: Caco-2, pH 7.4, Mean Papp B to A
[7] = tested on: Caco-2 cells; details: human, Caco-2, 2 h, 2 μM, pH 7.4
[8] = Caco-2 cell transport assay (bidirectional); details: human, Caco-2, 2.00 μM; for efflux ratio at 2 h, 2 μM: Caco-2, pH 7.4, Efflux Ratio; for Papp A→B at 2 h, 2 μM: Caco-2, pH 7.4, Mean Papp A to B; for Papp A→B at 2 h, 2 μM / Papp B→A at 2 h, 2 μM: pH 7.40; for Papp B→A at 2 h, 2 μM: Caco-2, pH 7.4, Mean Papp B to A
[9] = time point 0 min (basic sampling before dosing)
[10] = rats, single oral gavage, 1 mg/mL, 3 mL/kg, active ingredient ibutamoren measured in whole blood
[11] = oral gavage 30, 100, 300 mpk once a day for 14 days, 2 weeks recovery

Sequence of human GHSR (Q92847 whole entry): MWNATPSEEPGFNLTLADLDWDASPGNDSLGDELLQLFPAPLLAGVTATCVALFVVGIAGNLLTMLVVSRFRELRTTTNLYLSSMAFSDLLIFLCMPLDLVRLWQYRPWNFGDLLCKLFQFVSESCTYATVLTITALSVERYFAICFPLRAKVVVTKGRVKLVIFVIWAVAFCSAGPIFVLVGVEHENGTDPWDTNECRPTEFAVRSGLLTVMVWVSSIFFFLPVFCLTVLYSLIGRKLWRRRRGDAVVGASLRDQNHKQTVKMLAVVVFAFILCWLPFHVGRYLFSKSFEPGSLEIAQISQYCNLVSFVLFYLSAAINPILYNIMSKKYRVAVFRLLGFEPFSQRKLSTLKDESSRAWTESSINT

For `CC(OC(=O)NC(C)(C)C(=O)N[C@H](COCc1ccccc1)C(=O)N1CCC2(CC1)CN(S(C)(=O)=O)c1ccccc12)OC(=O)C(C)C` (stereo partly drawn) [Compound 5, (4R)-7,7-dimethyl-4-(1-(methylsulfonyl)spiro[indol-3,4′-piperidin]-1′-carbonyl)-6,9-dioxo-1-phenyl-2,10-dioxa-5,8-diazadodecan-11-yl Isobutyrate], the “Efflux Ratio” value [1] was 170, the “Mean Papp A to B” value ([1]; 2 hrs, pH 7.40) was 0.0518 10^−6 cm/s and the “Mean Papp B to A” value ([1]; 2 hrs, pH 7.40) was 8.80 10^−6 cm/s. The “GH level in the circulation of rats (in words)” value ([2]; 15 minutes after administration, male rats) was “significantly increased”, the “GH concentration in rats” value [2, 9] was 12.23 ± 10.44 ng/mL and the “GH concentration in rats” value ([2]; time point 15 min) was 51.12 ± 33.98 ng/mL. The “GH concentration in rats” value ([2]; time point 30 min) was 19.07 ± 7.17 ng/mL, the “GH concentration in rats” value ([2]; time point 60 min) was 11.76 ± 4.14 ng/mL and the “Cmax and AUC compared with positive control ibutamoren (in words)” value ([3]; rats, oral gavage) was “obviously superior”. For the same compound, the AUCINF-obs [3, 10] was 0.02331 ± 0.01081 µg·h/mL, the AUClast [3, 10] was 0.02161 ± 0.00952 µg·h/mL and the Cmax [3, 10] was 18.50 ± 13.60 ng/mL. For the same compound, the T1/2 [3, 10] was 2.43 ± 0.13 h, the Tmax [3, 10] was 0.44 ± 0.49 h and the “Subacute toxicity overall finding” value ([4]; dosage 80 times) was “no obvious abnormality”. For the same compound, the Anatomic findings [4, 11] was “no anatomic abnormality”, the “Food intake and daily behavior” value [4, 11] was “no significant abnormality” and the Weight change ([4]; oral gavage 30, 100, 300 mpk once a day for 14 days, 2 weeks recovery (FIG. 1)) was “no significant difference”. It also gave an EC50 ([5]; human GHSR/CHO stable cell line, Fluo-4 FLIPR) of 0.0146 µM.

Work on `CC(OC(=O)NC(C)(C)C(=O)N[C@H](COCc1ccccc1)C(=O)N1CCC2(CC1)CN(S(C)(=O)=O)c1ccccc12)OC(=O)C(C)(C)C` (stereo partly drawn) [Compound 20, (4R)-7,7-dimethyl-4-(1-(methylsulfonyl)spiro[indolin-3,4′-piperidin]-1′-carbonyl)-6,9-dioxo-1-phenyl-2,10-dioxa-5,8-diazadodecan-11-yl Pivalate] yielded an EC50 [5] of 0.0377 µM.

Compound `CC(=O)/C=C(/C)NC(C)(C)C(=O)N[C@H](COCc1ccccc1)C(=O)N1CCC2(CC1)CN(S(C)(=O)=O)c1ccccc12` [Compound 19, (R,Z)-N-(3-(benzoxy)-1-(1-(methylsulfonyl)spiro[indol-3,4′-piperidin]-1′-yl)-1-oxopropan-2-yl)-2-methyl-2-((4-oxopen-2-en-2-yl)amino)propionamide] has an efflux ratio at 2 h, 2 μM ([6]; Caco-2, pH 7.4, Efflux Ratio) of 189, a Papp A→B at 2 h, 2 μM ([6]; Caco-2, pH 7.4, Mean Papp A to B) of 1.98 nm/s and a Papp B→A at 2 h, 2 μM [6] of 373 nm/s.

`CCOP(=O)(OCC)OCOC(=O)NC(C)(C)C(=O)N[C@H](COCc1ccccc1)C(=O)N1CCC2(CC1)CN(S(C)(=O)=O)c1ccccc12` [Compound 10, ((Diethoxyphosphoryl)oxy)methyl (R)-(1-((3-(benzoxy)-1-(1-(methylsulfonyl)spiro[indol-3,4′-piperidin]-1′-yl)-1-oxopropan-2-yl)amino)-2-methyl-1-oxopropan-2-yl)carbamate] gave an EC50 [5] of 0.152 µM.

For `CC(=O)OC(C)OC(=O)NC(C)(C)C(=O)N[C@H](COCc1ccccc1)C(=O)N1CCC2(CC1)CN(S(C)(=O)=O)c1ccccc12` (stereo partly drawn) [Compound 14, (4R)-7,7-dimethyl-4-(1-(methylsulfonyl)spiro[indol-3,4′-piperidin]-1′-carbonyl)-6,9-dioxo-1-phenyl-2,10-dioxa-5,8-diazadodecan-11-yl Acetate], the “Effect on GH level compared with ibutamoren (in words)” value ([2]; rat, in vivo) was “significantly better than that of ibutamoren”, the “GH level in the circulation of rats (in words)” value ([2]; rat, in vivo) was “significantly increased” and the EC50 [5] was 0.0472 µM.

In the case of `CCC(C)C(=O)OC(C)OC(=O)NC(C)(C)C(=O)N[C@H](COCc1ccccc1)C(=O)N1CCC2(CC1)CN(S(C)(=O)=O)c1ccccc12` (stereo partly drawn) [Compound 12, (4R)-7,7-dimethyl-4-(1-(methylsulfonyl)spiro[indol-3,4′-piperidin]-1′-carbonyl)-6,9-dioxo-1-phenyl-2,10-dioxa-5,8-diazadodecan-11-yl 2-methylbutyrate], the EC50 [5] is reported as 0.0359 µM.

In the case of `CC(C)(N)C(=O)N[C@H](COCc1ccccc1)C(=O)N1CCC2(CC1)CN(S(C)(=O)=O)c1ccccc12` [Ibutamoren, reference compound], the “GH concentration in rats” value [2, 9] is reported as 12.22 ± 9.90 ng/mL, the AUC(0-inf) ([3]; rat, whole blood, po, 3 mg/kg) is reported as 0.0143 ± 0.011 µg·h/mL and the AUC(0-t) ([3]; rat, whole blood, po, 3 mg/kg) is reported as 0.00697 ± 0.00327 µg·h/mL. The Cmax ([3]; rat, whole blood, po, 3 mg/kg) was 3.49 ± 2.81 ng/mL, the Tmax ([3]; rat, whole blood, po, 3 mg/kg) was 1.06 ± 1.68 h and the half-life ([3]; rat, whole blood, po, 3 mg/kg) was 9.61 ± 12.1 h. The Papp B→A at 2 h, 2 μM [6] was 195 nm/s and the “Mean Papp B to A” value [7] was 24.1 10^−6 cm/s.

In the case of `C[C@H]1O[C@@H](O[C@H]2[C@@H](O)C[C@H](O[C@H]3[C@@H](O)C[C@H](O[C@H]4CC[C@@]5(C)[C@H](CC[C@@H]6[C@@H]5C[C@@H](O)[C@]5(C)[C@@H](C7=CC(=O)OC7)CC[C@]65O)C4)O[C@@H]3C)O[C@@H]2C)C[C@H](O)[C@@H]1O` [Digoxin], the efflux ratio at 2 h, 2 μM ([8]; Table 3-1) is reported as 523, the efflux ratio at 2 h, 2 μM ([8]; Table 3-2) is reported as 300 and the Papp A→B at 2 h, 2 μM ([8]; Table 3-1) is reported as 0.229 nm/s. The Papp A→B at 2 h, 2 μM ([8]; Table 3-2) was 0.476 nm/s, the Papp B→A at 2 h, 2 μM ([8]; Table 3-1) was 120 nm/s and the Papp B→A at 2 h, 2 μM ([8]; Table 3-2) was 143 nm/s.
